Results taken from ChEMBL document CHEMBL3046559, “Sterile oat (Avena sterilis L.) cross-resistance profile to ACCase-inhibiting herbicides in Greece” (2012).

Key:
Format in all cases: functional
[1] = system: Avena sterilis; assay: Herbicidal activity against Avena sterilis accession P02 assessed as weed survival at 16 times field recommended herbicide dose
[2] = system: Avena sterilis; assay: Herbicidal activity against Avena sterilis accession P09 assessed as weed survival at 16 times field recommended herbicide dose
[3] = system: Avena sterilis; assay: Herbicidal activity against Avena sterilis accession P03 assessed as weed survival at 8 times field recommended herbicide dose
[4] = system: Avena sterilis; assay: Herbicidal activity against Avena sterilis accession P20 assessed as weed survival at 16 times field recommended herbicide dose
[5] = system: Avena sterilis; assay: Herbicidal activity against Avena sterilis accession P05 assessed as weed survival at 4 times field recommended herbicide dose
[6] = system: Avena sterilis; assay: Herbicidal activity against Avena sterilis accession P04 assessed as induction of weed mortality
[7] = system: Avena sterilis; assay: Herbicidal activity against Avena sterilis accession P08 assessed as weed survival at 1 times field recommended herbicide dose
[8] = system: Avena sterilis; assay: Herbicidal activity against Avena sterilis accession P14 assessed as weed survival at 16 times field recommended herbicide dose
[9] = system: Avena sterilis; assay: Herbicidal activity against Avena sterilis accession P15 assessed as weed survival at 1 times field recommended herbicide dose
[10] = system: Avena sterilis; assay: Herbicidal activity against Avena sterilis accession P20 assessed as induction of weed mortality
[11] = system: Avena sterilis; assay: Herbicidal activity against Avena sterilis accession P02 assessed as weed survival at 1 times field recommended herbicide dose
[12] = system: Avena sterilis; assay: Herbicidal activity against Avena sterilis accession P02 assessed as induction of weed mortality
[13] = system: Avena sterilis; assay: Herbicidal activity against Avena sterilis accession P21S assessed as weed survival at 1/16 times field recommended herbicide dose
[14] = system: Avena sterilis; assay: Herbicidal activity against Avena sterilis accession P21S assessed as weed survival at 1/4 times field recommended herbicide dose
[15] = system: Avena sterilis; assay: Herbicidal activity against Avena sterilis accession P21S assessed as weed survival at 1/8 times field recommended herbicide dose
[16] = system: Avena sterilis; assay: Herbicidal activity against Avena sterilis accession P13S assessed as weed survival at 1/8 times field recommended herbicide dose
[17] = system: Avena sterilis; assay: Herbicidal activity against Avena sterilis accession P08 assessed as weed survival at 32 times field recommended herbicide dose
[18] = system: Avena sterilis; assay: Herbicidal activity against Avena sterilis accession P20 assessed as weed survival at 1 times field recommended herbicide dose
[19] = system: Avena sterilis; assay: Herbicidal activity against Avena sterilis accession P13S assessed as weed survival at 1 times field recommended herbicide dose
[20] = system: Avena sterilis; assay: Herbicidal activity against Avena sterilis accession P16 assessed as weed survival at 4 times field recommended herbicide dose
[21] = system: Avena sterilis; assay: Herbicidal activity against Avena sterilis accession P16 assessed as weed survival at 32 times field recommended herbicide dose
[22] = system: Avena sterilis; assay: Herbicidal activity against Avena sterilis accession P15 assessed as weed survival at 4 times field recommended herbicide dose
[23] = system: Avena sterilis; assay: Herbicidal activity against Avena sterilis accession P11 assessed as induction of weed mortality
[24] = system: Avena sterilis; assay: Herbicidal activity against Avena sterilis accession P01 assessed as weed survival at 8 times field recommended herbicide dose
[25] = system: Avena sterilis; assay: Herbicidal activity against Avena sterilis accession P04 assessed as weed survival at 4 times field recommended herbicide dose
[26] = system: Avena sterilis; assay: Herbicidal activity against Avena sterilis accession P14 assessed as weed survival at 8 times field recommended herbicide dose
[27] = system: Avena sterilis; assay: Herbicidal activity against Avena sterilis accession P06S assessed as weed survival at 1 times field recommended herbicide dose
[28] = system: Avena sterilis; assay: Herbicidal activity against Avena sterilis accession P21S assessed as induction of weed mortality
[29] = system: Avena sterilis; assay: Herbicidal activity against Avena sterilis accession P10S assessed as weed survival at 1/8 times field recommended herbicide dose
[30] = system: Avena sterilis; assay: Herbicidal activity against Avena sterilis accession P22 assessed as weed survival at 4 times field recommended herbicide dose
[31] = system: Avena sterilis; assay: Herbicidal activity against Avena sterilis accession P21S assessed as weed survival at 1/32 times field recommended herbicide dose
[32] = system: Avena sterilis; assay: Herbicidal activity against Avena sterilis accession P07 assessed as weed survival at 32 times field recommended herbicide dose
[33] = system: Avena sterilis; assay: Herbicidal activity against Avena sterilis accession P03 assessed as weed survival at 1 times field recommended herbicide dose
[34] = system: Avena sterilis; assay: Herbicidal activity against Avena sterilis accession P07 assessed as induction of weed mortality
[35] = system: Avena sterilis; assay: Herbicidal activity against Avena sterilis accession P06S assessed as weed survival at 1/16 times field recommended herbicide dose
[36] = system: Avena sterilis; assay: Herbicidal activity against Avena sterilis accession P13S assessed as weed survival at 1/4 times field recommended herbicide dose
[37] = system: Avena sterilis; assay: Herbicidal activity against Avena sterilis accession P14 assessed as induction of weed mortality
[38] = system: Avena sterilis; assay: Herbicidal activity against Avena sterilis accession P19S assessed as induction of weed mortality
[39] = system: Avena sterilis; assay: Herbicidal activity against Avena sterilis accession P21S assessed as weed survival at 1 times field recommended herbicide dose
[40] = system: Avena sterilis; assay: Herbicidal activity against Avena sterilis accession P02 assessed as weed survival at 4 times field recommended herbicide dose
[41] = system: Avena sterilis; assay: Herbicidal activity against Avena sterilis accession P08 assessed as induction of weed mortality
[42] = system: Avena sterilis; assay: Herbicidal activity against Avena sterilis accession P11 assessed as weed survival at 16 times field recommended herbicide dose
[43] = system: Avena sterilis; assay: Herbicidal activity against Avena sterilis accession P01 assessed as weed survival at 16 times field recommended herbicide dose
[44] = system: Avena sterilis; assay: Herbicidal activity against Avena sterilis accession P10S assessed as weed survival at 1/16 times field recommended herbicide dose
[45] = system: Avena sterilis; assay: Herbicidal activity against Avena sterilis accession P05 assessed as weed survival at 32 times field recommended herbicide dose
[46] = system: Avena sterilis; assay: Herbicidal activity against Avena sterilis accession P06S assessed as weed survival at 1/8 times field recommended herbicide dose
[47] = system: Avena sterilis; assay: Herbicidal activity against Avena sterilis accession P14 assessed as weed survival at 4 times field recommended herbicide dose
[48] = system: Avena sterilis; assay: Herbicidal activity against Avena sterilis accession P09 assessed as weed survival at 4 times field recommended herbicide dose
[49] = system: Avena sterilis; assay: Herbicidal activity against Avena sterilis accession P08 assessed as weed survival at 16 times field recommended herbicide dose
[50] = system: Avena sterilis; assay: Herbicidal activity against Avena sterilis accession P03 assessed as induction of weed mortality
[51] = system: Avena sterilis; assay: Herbicidal activity against Avena sterilis accession P02 assessed as weed survival at 8 times field recommended herbicide dose
[52] = system: Avena sterilis; assay: Herbicidal activity against Avena sterilis accession P14 assessed as weed survival at 1 times field recommended herbicide dose
[53] = system: Avena sterilis; assay: Herbicidal activity against Avena sterilis accession P17 assessed as induction of weed mortality
[54] = system: Avena sterilis; assay: Herbicidal activity against Avena sterilis accession P09 assessed as weed survival at 1 times field recommended herbicide dose
[55] = system: Avena sterilis; assay: Herbicidal activity against Avena sterilis accession P05 assessed as induction of weed mortality
[56] = system: Avena sterilis; assay: Herbicidal activity against Avena sterilis accession P10S assessed as induction of weed mortality
[57] = system: Avena sterilis; assay: Herbicidal activity against Avena sterilis accession P16 assessed as weed survival at 1 times field recommended herbicide dose
[58] = system: Avena sterilis; assay: Herbicidal activity against Avena sterilis accession P17 assessed as weed survival at 8 times field recommended herbicide dose
[59] = system: Avena sterilis; assay: Herbicidal activity against Avena sterilis accession P09 assessed as weed survival at 8 times field recommended herbicide dose

COC(=O)C(C)Oc1ccc(Oc2ccc(Cl)cc2Cl)cc1 (stereo not drawn) [DICLOFOP-METHYL] was tested, and the Survival [1] was 70%, the Survival [2] was 53% and the Survival [3] was 60%. The Survival [4] was 80%, the Survival [5] was 70% and the GR50 [6] was 14196 gAi/ha. The Survival [7] was 97%, the Survival [8] was 50% and the Survival [9] was 100%. The GR50 [10] was greater than 22740 gAi/ha, the Survival [11] was 100% and the GR50 [12] was greater than 22740 gAi/ha. The Survival [13] was 97%, the Survival [14] was 83% and the Survival [15] was 97%. The Survival [16] was 83%, the Survival [17] was 33% and the Survival [18] was 100%. For the same compound, the Survival [19] was 40%, the Survival [20] was 60% and the Survival [21] was 20%. It also gave a Survival [22] of 100%, a GR50 [23] greater than 22740 gAi/ha and a Survival [24] of 80%. For the same compound, the Survival [25] was 97%, the Survival [26] was 60% and the Survival [27] was 40%. The GR50 [28] was 418 gAi/ha, the Survival [29] was 97% and the Survival [30] was 63%. The Survival [31] was 100%, the Survival [32] was 20% and the Survival [33] was 100%. It also gave a GR50 [34] of 3737 gAi/ha, a Survival [35] of 100% and a Survival [36] of 80%. The GR50 [37] was 11045 gAi/ha, the GR50 [38] was 451 gAi/ha and the Survival [39] was 27%. For the same compound, the Survival [40] was 97%, the GR50 [41] was 11354 gAi/ha and the Survival [42] was 70%. The Survival [43] was 60%, the Survival [44] was 97% and the Survival [45] was 20%. It also gave a Survival [46] of 90%, a Survival [47] of 77% and a Survival [48] of 80%. It also gave a Survival [49] of 53%, a GR50 [50] of 13359 gAi/ha and a Survival [51] of 80%. It also gave a Survival [52] of 90%, a GR50 [53] of 8389 gAi/ha and a Survival [54] of 100%. It also gave a GR50 [55] of 4859 gAi/ha, a GR50 [56] of 506 gAi/ha and a Survival [57] of 80%. The Survival [58] was 60% and the Survival [59] was 73%.

CCOC(=O)[C@@H](C)Oc1ccc(Oc2nc3ccc(Cl)cc3o2)cc1 [FENOXAPROP-P-ETHYL] gave a Survival [1] of 67%, a Survival [2] of 60% and a Survival [3] of 60%. For the same compound, the Survival [4] was 83%, the Survival [5] was 25% and the GR50 [6] was 913 gAi/ha. For the same compound, the Survival [7] was 100%, the Survival [8] was 20% and the Survival [9] was 100%. The GR50 [10] was greater than 2640 gAi/ha, the Survival [11] was 100% and the GR50 [12] was 2070 gAi/ha. It also gave a Survival [13] of 83%, a Survival [14] of 43% and a Survival [15] of 80%. It also gave a Survival [16] of 80%, a Survival [17] of 20% and a Survival [18] of 97%. For the same compound, the Survival [19] was 0%, the Survival [20] was 90% and the Survival [21] was 0%. For the same compound, the Survival [22] was 100%, the GR50 [23] was 2261 gAi/ha and the Survival [24] was 40%. It also gave a Survival [25] of 80%, a Survival [26] of 27% and a Survival [27] of 0%. The GR50 [28] was 18 gAi/ha, the Survival [29] was 80% and the Survival [30] was 40%. For the same compound, the Survival [31] was 97%, the Survival [32] was 70% and the Survival [33] was 97%. The GR50 [34] was greater than 2640 gAi/ha, the Survival [35] was 90% and the Survival [36] was 43%. It also gave a GR50 [37] of 155 gAi/ha, a GR50 [38] of 31 gAi/ha and a Survival [39] of 0%. It also gave a Survival [40] of 100%, a GR50 [41] of 854 gAi/ha and a Survival [42] of 57%. It also gave a Survival [43] of 23%, a Survival [44] of 87% and a Survival [45] of 0%. It also gave a Survival [46] of 80%, a Survival [47] of 43% and a Survival [48] of 80%. It also gave a Survival [49] of 30%, a GR50 [50] of 860 gAi/ha and a Survival [51] of 93%. It also gave a Survival [52] of 57%, a GR50 [53] of 303 gAi/ha and a Survival [54] of 80%. It also gave a GR50 [55] of 181 gAi/ha, a GR50 [56] of 16 gAi/ha and a Survival [57] of 93%. It also gave a Survival [58] of 20% and a Survival [59] of 80%.
